{"source": "patent US20080200454A1", "about": "“CARBON-LINKED TETRAHYDRO-PYRAZOLO-PYRIDINE MODULATORS OF CATHEPSIN S” (priority 2007, published 2008)"}
{"molecular_target": "Recombinant human cathepsin S (CatS) (Homo sapiens, UniProt P25774)", "sequence (P25774 115-331)": "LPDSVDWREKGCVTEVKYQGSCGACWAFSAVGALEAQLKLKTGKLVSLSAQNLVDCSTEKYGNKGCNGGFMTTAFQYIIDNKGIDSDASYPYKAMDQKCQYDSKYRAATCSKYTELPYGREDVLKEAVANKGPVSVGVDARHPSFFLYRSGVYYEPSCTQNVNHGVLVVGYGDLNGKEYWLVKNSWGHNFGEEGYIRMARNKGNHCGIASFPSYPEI", "assay": "Recombinant human cathepsin S (CatS) inhibition assay, fluorogenic substrate Z-Valine-Valine-Arginine-AMC;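 also: Baculovirus-expressed CatS in pH 5.0 sodium acetate buffer with DTT and NaCl, fluorescence read each minute over 20 min, inhibition derived from rate slope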", "settings": "not given", "units": {"IC50": "µM"}}
{"molecule": "NC(=O)N1CCc2c(c(-c3ccc(Cl)c(C#Cc4ccc(CNCc5ccc(Cl)cc5)cc4)c3)nn2CCCN2CCN(c3cccc[n+]3[O-])CC2)C1", "note": "[Example 454, 3-(4-Chloro-3-{[4-({[(4-chlorophenyl)methyl]amino}methyl)phenyl]ethynyl}phenyl)-1-{3-[4-(1-oxidopyridin-2-yl)piperazin-1-yl]propyl}-1,4,6,7-tetrahydro-5H-pyrazolo[4,3-c]pyridine-5-carboxamide]", "IC50": 0.04}
{"molecule": "CC(C)(O)CNCc1cc(C#Cc2cc(-c3nn(CCCN4CCSCC4)c4c3CN(C(=O)C(N)=O)CC4)ccc2Cl)ccc1Cl", "note": "[Example 562, 2-[3-{4-Chloro-3-[(4-chloro-3-{[(2-hydroxy-2-methylpropyl)amino]methyl}phenyl)ethynyl]phenyl}-1-(3-thiomorpholin-4-ylpropyl)-1,4,6,7-tetrahydro-5H-pyrazolo[4,3-c]pyridin-5-yl]-2-oxoacetamide]", "IC50": 0.03}
{"molecule": "CS(=O)(=O)N1CCc2c(c(-c3ccc(Cl)c(C#Cc4ccc(CNCc5ccc(Cl)cc5)cc4)c3)nn2CCCN2CCC(NC(=O)CO)CC2)C1", "note": "[Example 356, N-(1-{3-[3-(4-Chloro-3-{[4-({[(4-chlorophenyl)methyl]amino}methyl)phenyl]ethynyl}phenyl)-5-(methylsulfonyl)-4,5,6,7-tetrahydro-1H-pyrazolo[4,3-c]pyridin-1-yl]propyl}piperidin-4-yl)-2-hydroxyacetamide]", "IC50": 0.02}
{"molecule": "NC(=O)C(=O)N1CCc2c(c(-c3ccc(Cl)c(C#Cc4ccc(Cl)c(C(=O)NCC5CNCCO5)c4)c3)nn2CCCN2CCSCC2)C1", "note": "(centres unmarked) [Example 580, 5-[(5-{5-[Amino(oxo)acetyl]-1-(3-thiomorpholin-4-ylpropyl)-4,5,6,7-tetrahydro-1H-pyrazolo[4,3-c]pyridin-3-yl}-2-chlorophenyl)ethynyl]-2-chloro-N-(morpholin-2-ylmethyl)benzamide]", "IC50": 0.03}
{"molecule": "NC(=O)N1CCc2c(c(-c3ccc(Cl)c(C#Cc4ccc(Cl)c(C(=O)NCC5CCCNC5)c4)c3)nn2CCCN2CCSCC2)C1", "note": "(centres unmarked) [Example 583, 3-[4-Chloro-3-({4-chloro-3-[(piperidin-3-ylmethyl)carbamoyl]phenyl}ethynyl)phenyl]-1-(3-thiomorpholin-4-ylpropyl)-1,4,6,7-tetrahydro-5H-pyrazolo[4,3-c]pyridine-5-carboxamide]", "IC50": 0.03}
{"molecule": "CC(NCc1ccc(C#Cc2cc(-c3nn(CCCN4CCN(c5ccccn5)CC4)c4c3CN(S(C)(=O)=O)CC4)ccc2Cl)cc1)c1ccccc1", "note": "(centres unmarked) [Example 219, N-({4-[(2-Chloro-5-{5-(methylsulfonyl)-1-[3-(4-pyridin-2-ylpiperazin-1-yl)propyl]-4,5,6,7-tetrahydro-1H-pyrazolo[4,3-c]pyridin-3-yl}phenyl)ethynyl]phenyl}methyl)-1-phenylethanamine]", "IC50": 0.04}
{"molecule": "CS(=O)(=O)N1CCc2c(c(-c3ccc(Cl)c(CCCNS(=O)(=O)c4ccc(Cl)c(Cl)c4)c3)nn2CCCN2CCOCC2)C1", "note": "[Example 82, 3,4-Dichloro-N-(3-{2-chloro-5-[5-methanesulfonyl-1-(3-morpholin-4-yl-propyl)-4,5,6,7-tetrahydro-1H-pyrazolo[4,3-c]pyridin-3-yl]-phenyl}-propyl)-benzenesulfonamide]", "IC50": 6.1}
{"molecule": "COC(=O)c1ccccc1S(=O)(=O)NCCCc1cc(-c2nn(CCCN3CCC(N4CCCC4=O)CC3)c3c2CN(S(C)(=O)=O)CC3)ccc1Cl", "note": "[Example 309, Methyl 2-{[(3-{2-chloro-5-[5-(methylsulfonyl)-1-{3-[4-(2-oxopyrrolidin-1-yl)piperidin-1-yl]propyl}-4,5,6,7-tetrahydro-1H-pyrazolo[4,3-c]pyridin-3-yl]phenyl}propyl)amino]sulfonyl}benzoate]", "IC50": 0.32}
{"molecule": "NC(=O)C(=O)N1CCc2c(c(-c3ccc(Cl)c(C#Cc4ccc(Cl)c(C(=O)N[C@@H](CO)c5ccccc5)c4)c3)nn2CCCN2CCSCC2)C1", "note": "[Example 564, 5-[(5-{5-[Amino(oxo)acetyl]-1-(3-thiomorpholin-4-ylpropyl)-4,5,6,7-tetrahydro-1H-pyrazolo[4,3-c]pyridin-3-yl}-2-chlorophenyl)ethynyl]-2-chloro-N-[(1R)-2-hydroxy-1-phenylethyl]benzamide]", "IC50": 0.03}
{"molecule": "CS(=O)(=O)N1CCc2c(c(-c3ccc(Cl)c(CCCNC4CCCC4)c3)nn2CCCN2CCC(N3CCCC3=O)CC2)C1", "note": "[Example 108, 1-[1-(3-{3-[4-Chloro-3-(3-cyclopentylamino-propyl)-phenyl]-5-methanesulfonyl-4,5,6,7-tetrahydro-pyrazolo[4,3-c]pyridin-1-yl}-propyl)-piperidin-4-yl]-pyrrolidin-2-one]", "IC50": 0.66}
{"molecular_target": "Recombinant human cathepsin S (CatS) (Homo sapiens, UniProt P25774)", "assay": "Recombinant human cathepsin S (CatS) inhibition assay, fluorogenic substrate Z-Valine-Valine-Arginine-AMC;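 also: Baculovirus-expressed CatS in pH 5.0 sodium acetate buffer with DTT and NaCl, fluorescence read each minute over 20 min, inhibition derived from rate slope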", "settings": "CatS IC50", "units": {"IC50": "µM"}}
{"molecule": "C[C@H]1COCCN1CCCn1nc(-c2ccc(Cl)c(C#Cc3ccc4c(c3)CN(C3CC3)CC4)c2)c2c1CCN(C(=O)C(N)=O)C2", "note": "[Example 283, 2-(3-{4-Chloro-3-[(2-cyclopropyl-1,2,3,4-tetrahydroisoquinolin-7-yl)ethynyl]phenyl}-1-{3-[(3S)-3-methylmorpholin-4-yl]propyl}-1,4,6,7-tetrahydro-5H-pyrazolo[4,3-c]pyridin-5-yl)-2-oxoacetamide]", "IC50": 0.1}
{"molecule": "CS(=O)(=O)N1CCc2c(c(-c3ccc(Cl)c(C#Cc4ccc(NCC#N)cc4)c3)nn2CCCN2CCOCC2)C1", "note": "[Example 322, {[4-({2-Chloro-5-[5-(methylsulfonyl)-1-(3-morpholin-4-ylpropyl)-4,5,6,7-tetrahydro-1H-pyrazolo[4,3-c]pyridin-3-yl]phenyl}ethynyl)phenyl]amino}acetonitrile]", "IC50": 0.73}
{"molecule": "CS(=O)(=O)N1CCc2c(c(-c3ccc(Cl)c(C#Cc4ccc5c(c4)CCN(C4CC4)C5)c3)nn2CCCN2CCOCC2)C1", "note": "[Example 284, 6-({2-Chloro-5-[5-(methylsulfonyl)-1-(3-morpholin-4-ylpropyl)-4,5,6,7-tetrahydro-1H-pyrazolo[4,3-c]pyridin-3-yl]phenyl}ethynyl)-2-cyclopropyl-1,2,3,4-tetrahydroisoquinoline]", "IC50": 0.2}
{"molecule": "NC(=O)N1CCc2c(c(-c3ccc(Cl)c(C#Cc4cccc(CNCc5ccccc5F)c4)c3)nn2CCCN2CCSCC2)C1", "note": "[Example 515, 3-(4-Chloro-3-{[3-({[(2-fluorophenyl)methyl]amino}methyl)phenyl]ethynyl}phenyl)-1-(3-thiomorpholin-4-ylpropyl)-1,4,6,7-tetrahydro-5H-pyrazolo[4,3-c]pyridine-5-carboxamide]", "IC50": 0.25}
{"molecule": "CS(=O)(=O)N1CCc2c(c(-c3ccc(Cl)c(C#Cc4ccc(CNCc5ccc(Cl)cc5)cc4)c3)nn2CCCN2CCC(C(F)(F)F)CC2)C1", "note": "[Example 345, 1-[4-({2-Chloro-5-[5-(methylsulfonyl)-1-{3-[4-(trifluoromethyl)piperidin-1-yl]propyl}-4,5,6,7-tetrahydro-1H-pyrazolo[4,3-c]pyridin-3-yl]phenyl}ethynyl)phenyl]-N-[(4-chlorophenyl)methyl]methanamine]", "IC50": 0.11}
{"molecule": "CS(=O)(=O)N1CCc2c(c(-c3ccc(Cl)c(C#Cc4ccc(NCc5ccccc5)cc4)c3)nn2CCCN2CCOCC2)C1", "note": "[Example 321, 4-({2-Chloro-5-[5-(methylsulfonyl)-1-(3-morpholin-4-ylpropyl)-4,5,6,7-tetrahydro-1H-pyrazolo[4,3-c]pyridin-3-yl]phenyl}ethynyl)-N-(phenylmethyl)aniline]", "IC50": 4.65}
{"molecule": "CS(=O)(=O)N1CCc2c(c(-c3ccc(Cl)c(C#Cc4ccc(Cl)cc4)c3)nn2CCCN2CCOCC2)C1", "note": "[Example 28, 3-[4-Chloro-3-(4-chloro-phenylethynyl)-phenyl]-5-methanesulfonyl-1-(3-morpholin-4-yl-propyl)-4,5,6,7-tetrahydro-1H-pyrazolo[4,3-c]pyridine]", "IC50": 0.2}
{"molecule": "C[C@H]1COCCN1CCCn1nc(-c2ccc(Cl)c(C#Cc3ccc(Cl)c(CNCc4ccccc4)c3)c2)c2c1CCN(S(C)(=O)=O)C2", "note": "[Example 286, 1-[2-Chloro-5-({2-chloro-5-[1-{3-[(3S)-3-methylmorpholin-4-yl]propyl}-5-(methylsulfonyl)-4,5,6,7-tetrahydro-1H-pyrazolo[4,3-c]pyridin-3-yl]phenyl}ethynyl)phenyl]-N-(phenylmethyl)methanamine]", "IC50": 0.03}
{"molecule": "CS(=O)(=O)N1CCc2c(c(-c3ccc(Cl)c(C#Cc4ccc(CNCc5ccco5)cc4)c3)nn2CCCN2CCOCC2)C1", "note": "[Example 425, 1-[4-({2-Chloro-5-[5-(methylsulfonyl)-1-(3-morpholin-4-ylpropyl)-4,5,6,7-tetrahydro-1H-pyrazolo[4,3-c]pyridin-3-yl]phenyl}ethynyl)phenyl]-N-(furan-2-ylmethyl)methanamine]", "IC50": 0.07}
{"molecule": "CS(=O)(=O)N1CCc2c(c(-c3ccc(Cl)c(C#Cc4ccc5c(c4)CCNCC5)c3)nn2CCCN2CCOCC2)C1", "note": "[Example 375, 7-({2-Chloro-5-[5-(methylsulfonyl)-1-(3-morpholin-4-ylpropyl)-4,5,6,7-tetrahydro-1H-pyrazolo[4,3-c]pyridin-3-yl]phenyl}ethynyl)-2,3,4,5-tetrahydro-1H-3-benzazepine]", "IC50": 0.41}
{"molecule": "NC(=O)C(=O)N1CCc2c(c(-c3ccc(Cl)c(C#Cc4ccc(Cl)c(C(=O)N5CCNCC5)c4)c3)nn2CCCN2CCSCC2)C1", "note": "[Example 568, 2-[3-(4-Chloro-3-{[4-chloro-3-(piperazin-1-ylcarbonyl)phenyl]ethynyl}phenyl)-1-(3-thiomorpholin-4-ylpropyl)-1,4,6,7-tetrahydro-5H-pyrazolo[4,3-c]pyridin-5-yl]-2-oxoacetamide]", "IC50": 0.14}
{"molecule": "C[C@H]1COCCN1CCCn1nc(-c2ccc(Cl)c(C#Cc3ccc(Cl)c(C(=O)N4CCCC4)c3)c2)c2c1CCN(C(=O)C(N)=O)C2", "note": "[Example 573, 2-[3-(4-Chloro-3-{[4-chloro-3-(pyrrolidin-1-ylcarbonyl)phenyl]ethynyl}phenyl)-1-{3-[(3S)-3-methylmorpholin-4-yl]propyl}-1,4,6,7-tetrahydro-5H-pyrazolo[4,3-c]pyridin-5-yl]-2-oxoacetamide]", "IC50": 0.19}
{"molecular_target": "Recombinant human cathepsin S (CatS) (Homo sapiens, UniProt P25774)", "assay": "Recombinant human cathepsin S (CatS) inhibition assay, fluorogenic substrate Z-Valine-Valine-Arginine-AMC;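 also: Baculovirus-expressed CatS in pH 5.0 sodium acetate buffer with DTT and NaCl, fluorescence read each minute over 20 min, inhibition derived from rate slope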", "settings": "CatS IC50, Table 2; average of results obtained", "units": {"IC50": "µM"}}
{"molecule": "CS(=O)(=O)N1CCc2c(c(-c3ccc(Cl)c(C#Cc4ccncc4)c3)nn2CCCN2CCOCC2)C1", "note": "[Example 20, 3-(4-Chloro-3-pyridin-4-ylethynyl-phenyl)-5-methanesulfonyl-1-(3-morpholin-4-yl-propyl)-4,5,6,7-tetrahydro-1H-pyrazolo[4,3-c]pyridine]", "IC50": 0.54}
